Results from patent publication US20250223259A1, “PROTEASE INHIBITORS FOR TREATING OR PREVENTING CORONAVIRUS INFECTION” (Merck Sharp & Dohme LLC, priority 2022, published 2025).

Target: SARS2 coronavirus 3CL protease (Severe acute respiratory syndrome coronavirus 2 (2019-nCoV) (SARS-CoV-2), UniProt P0DTD1)
Assay: SARS2 Coronavirus 3CL Protease Assay (FRET)
Assay type: biochemical
Conditions: SARS2 3CLPro FRET assay; 5 nM enzyme, 30 min pre-incubation with compound, 15 uM peptide substrate, 4 h room temperature

Row | SMILES | IC50
1 | CNC(=O)C(=O)[C@H](CCC(C)(F)F)NC(=O)[C@@H]1CC(F)(F)[C@@H](C)CN1C(=O)[C@@H](NC(=O)OC)C(C)(C)C [Example 91, methyl ((S)-1-((2S,5S)-2-(((S)-6,6-difluoro-1-(methylamino)-1,2-dioxoheptan-3-yl)carbamoyl)-4,4-difluoro-5-methylpiperidin-1-yl)-3,3-dimethyl-1-oxobutan-2-yl)carbamate] | 19 nM
2 | COC(=O)N[C@H](C(=O)N1CCC(OC(F)(F)F)CC1C(=O)N[C@@H](CCC(C)(F)F)C(=O)C(=O)NC1CC1)C(C)(C)C (single isomer, unassigned) [Example 112, methyl ((S)-1-((2S,4S or 2R,4R)-2-(((S)-1-(cyclopropylamino)-6,6-difluoro-1,2-dioxoheptan-3-yl)carbamoyl)-4-(trifluoromethoxy)piperidin-1-yl)-3,3-dimethyl-1-oxobutan-2-yl)carbamate] | 146 nM
3 | COC(=O)N[C@H](C(=O)N1CCC(C)C1C(=O)N[C@@H](CCC(C)(F)F)C(=O)C(=O)NC1CC1)C(C)(C)C (single isomer, unassigned) [Example 51, Methyl ((S)-1-((2(R or S),3(R or S))-2-(((S)-1-(cyclopropylamino)-6,6-difluoro-1,2-dioxoheptan-3-yl)carbamoyl)-3-methylpyrrolidin-1-yl)-3,3-dimethyl-1-oxobutan-2-yl)carbamate] | 97 nM
4 | COC(=O)N[C@H](C(=O)N1C[C@H]2[C@@H]([C@H]1C(=O)N[C@@H](CCC(C)(F)F)C(=O)C(=O)NC1CC1)C(C)(C)C2(C)C)C(C)(C)C [Example 36, Methyl ((S)-1-((1R,2S,5S)-2-(((S)-1-(cyclopropylamino)-6,6-difluoro-1,2-dioxoheptan-3-yl)carbamoyl)-6,6,7,7-tetramethyl-3-azabicyclo[3.2.0]heptan-3-yl)-3,3-dimethyl-1-oxobutan-2-yl)carbamate] | 8.2 nM
5 | COC(=O)N[C@H](C(=O)N1CCC(OC(F)F)CC1C(=O)N[C@@H](CCC(C)(F)F)C(=O)C(=O)NC1CC1)C(C)(C)C (single isomer, unassigned) [Example 109, methyl ((S)-1-((2R,4R or 2S,4S)-2-(((S)-1-(cyclopropylamino)-6,6-difluoro-1,2-dioxoheptan-3-yl)carbamoyl)-4-(difluoromethoxy)piperidin-1-yl)-3,3-dimethyl-1-oxobutan-2-yl)carbamate] | 50 nM
6 | COC(=O)N[C@H](C(=O)N1C[C@H]2[C@@H]([C@H]1C(=O)N[C@@H](CCC(C)(F)F)C(=O)C(=O)NC1CC1)C2(C)C)C(C)(C)C [Example 6, Methyl ((S)-1-((1R,2S,5S)-2-(((S)-1-(cyclopropylamino)-6,6-difluoro-1,2-dioxoheptan-3-yl)carbamoyl)-6,6-dimethyl-3-azabicyclo[3.1.0]hexan-3-yl)-3,3-dimethyl-1-oxobutan-2-yl)carbamate] | 17 nM
7 | COC(=O)N[C@H](C(=O)N1CCC(C2CC2)C1C(=O)N[C@@H](CCC(C)(F)F)C(=O)C(=O)NC1CC1)C(C)(C)C (single isomer, unassigned) [Example 23, Methyl ((S)-1-((2(S or R),3(R or S))-3-cyclopropyl-2-(((S)-1-(cyclopropylamino)-6,6-difluoro-1,2-dioxoheptan-3-yl)carbamoyl)pyrrolidin-1-yl)-3,3-dimethyl-1-oxobutan-2-yl)carbamate] | 10 nM
8 | CNC(=O)C(=O)[C@H](CCC(C)(F)F)NC(=O)[C@@H]1[C@@H]2[C@H](CN1C(=O)[C@@H](NC(=O)OC)C(C)(C)C)C21CCOCC1 [Example 40, Methyl ((S)-1-((1R,2S,5S)-2-(((S)-6,6-difluoro-1-(methylamino)-1,2-dioxoheptan-3-yl)carbamoyl)tetrahydro-3-azaspiro[bicyclo[3.1.0]hexane-6,4′-pyran]-3-yl)-3,3-dimethyl-1-oxobutan-2-yl)carbamate] | 12 nM
9 | CNC(=O)C(=O)[C@H](CCC(C)(F)F)NC(=O)[C@@H]1[C@H]2CCC[C@H]2CN1C(=O)[C@@H](NC(=O)OCC(F)(F)F)C(C)(C)C [Example 122, 2,2,2-trifluoroethyl ((S)-1-((1S,3aR,6aS)-1-(((S)-6,6-difluoro-1-(methylamino)-1,2-dioxoheptan-3-yl)carbamoyl)hexahydrocyclopenta[c]pyrrol-2(1H)-yl)-3,3-dimethyl-1-oxobutan-2-yl)carbamate] | 34 nM
10 | COC(=O)N[C@H](C(=O)N1C[C@@H]2CCCC[C@@H]2C[C@H]1C(=O)N[C@@H](CCC(C)(F)F)C(=O)C(=O)NC1CC1)C(C)(C)C [Example 26, Methyl ((S)-1-((3S,4aR,8aR)-3-(((S)-1-(cyclopropylamino)-6,6-difluoro-1,2-dioxoheptan-3-yl)carbamoyl)octahydroiso-quinolin-2(1H)-yl)-3,3-dimethyl-1-oxobutan-2-yl)carbamate] | 22 nM
11 | COC(=O)N[C@H](C(=O)N1CC[C@@H](C(F)(F)F)C[C@H]1C(=O)N[C@@H](CCC(C)(F)F)C(=O)C(=O)NC1CC1)c1ccccc1 [Example 65, Methyl ((S)-2-((2S,4R)-2-(((S)-1-(cyclopropylamino)-6,6-difluoro-1,2-dioxoheptan-3-yl)carbamoyl)-4-(trifluoromethyl)piperidin-1-yl)-2-oxo-1-phenylethyl)carbamate] | 24 nM
12 | CNC(=O)C(=O)[C@H](CCC(C)(F)F)NC(=O)[C@@H]1[C@H]2CCC[C@H]2CN1C(=O)[C@H](CC(F)(F)F)NC(=O)OC [Example 87, methyl ((S)-1-((1S,3aR,6aS)-1-(((S)-6,6-difluoro-1-(methylamino)-1,2-dioxoheptan-3-yl)carbamoyl)hexahydrocyclopenta[c]pyrrol-2(1H)-yl)-4,4,4-trifluoro-1-oxobutan-2-yl)carbamate] | 7 nM
13 | COC(=O)N[C@@H](C)C(=O)N1CC2(CCCCC2)C[C@H]1C(=O)N[C@@H](CCC(C)(F)F)C(=O)C(=O)NC1CC1 [Example 14, Methyl ((S)-1-((S)-3-(((S)-1-(cyclopropylamino)-6,6-difluoro-1,2-dioxoheptan-3-yl)carbamoyl)-2-azaspiro[4.5]decan-2-yl)-1-oxopropan-2-yl)carbamate] | 69 nM
14 | COC(=O)N[C@H](C(=O)N1C[C@H](OC(F)(F)F)C[C@H]1C(=O)N[C@@H](CCC(C)(F)F)C(=O)C(=O)NC1CC1)C(C)(C)C [Example 70, Methyl ((S)-1-((2S,4R)-2-(((S)-1-(cyclopropylamino)-6,6-difluoro-1,2-dioxoheptan-3-yl)carbamoyl)-4-(trifluoromethoxy)pyrrolidin-1-yl)-3,3-dimethyl-1-oxobutan-2-yl)carbamate] | 36 nM
15 | COC(=O)N[C@H](C(=O)N1C[C@H](OC(F)(F)F)C(C)(C)[C@H]1C(=O)N[C@@H](CCC(C)(F)F)C(=O)C(=O)NC1CC1)C(C)(C)C [Example 48, Methyl ((S)-1-((2S,4R)-2-(((S)-1-(cyclopropylamino)-6,6-difluoro-1,2-dioxoheptan-3-yl)carbamoyl)-3,3-dimethyl-4-(trifluoromethoxy)pyrrolidin-1-yl)-3,3-dimethyl-1-oxobutan-2-yl)carbamate] | 45 nM
16 | COC(=O)N[C@H](C(=O)N1CCC(O)(C(F)(F)F)C[C@H]1C(=O)N[C@@H](CCC(C)(F)F)C(=O)C(=O)NC1CC1)C(C)(C)C (single isomer, unassigned) [Example 58, Methyl ((S)-1-((2S, 4(R or S))-2-(((S)-1-(cyclopropylamino)-6,6-difluoro-1,2-dioxoheptan-3-yl)carbamoyl)-4-hydroxy-4-(trifluoromethyl)piperidin-1-yl)-3,3-dimethyl-1-oxobutan-2-yl)carbamate] | 347 nM
